From patent publication US7825151B2, “Hexahydro-cyclooctyl pyrazole cannabinoid modulators” (priority 2005, dated 2010)
Several values for one entry are separate records, joined by “and”; a condition that tells them apart may be missing. Equal entries are not always repeated.

Assays:
[1] = target: T1, CB2 receptor (Homo sapiens, UniProt P34972); test: Binding assay for CB2 ([3H]-CP-55,940 displacement, SK-N-MC membranes)
T1 construct: expressed in transfected cells; host or cells: SK-N-MC cells, stably transfected with pcDNA3 CB-2 (human)
T1 sequence (P34972 whole entry): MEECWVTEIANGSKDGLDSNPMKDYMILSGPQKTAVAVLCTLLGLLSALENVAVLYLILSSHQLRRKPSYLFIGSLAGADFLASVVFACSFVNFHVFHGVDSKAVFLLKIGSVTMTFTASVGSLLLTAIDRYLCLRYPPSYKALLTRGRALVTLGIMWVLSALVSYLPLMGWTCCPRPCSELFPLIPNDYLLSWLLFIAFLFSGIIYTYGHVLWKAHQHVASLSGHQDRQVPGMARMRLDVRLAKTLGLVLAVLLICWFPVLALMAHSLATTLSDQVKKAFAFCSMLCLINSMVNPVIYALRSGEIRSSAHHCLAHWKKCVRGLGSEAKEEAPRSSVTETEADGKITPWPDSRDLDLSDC
Description: The human CB1 and CB2 receptors were stably expressed in SK-N-MC cells transfected with pcDNA3 CB-1 (human) or pcDNA3 CB-2 (human). The cells were grown in T-180 cell culture flasks under standard cell culture conditions at 37° C. in a 5% CO2 atmosphere. The cells were harvested by trysinization and homogenized in a homogenization buffer (10 mM Tris, 0.2 mM MgCl2, 5 mM KCl, with protease inhibitors aprotinin, leupeptin, pepstatin A and bacitracin) and centrifuged (2000 g). The supernatant was then centrifuged in 2M sucrose (31,300 g) to produce a semi-purified membrane pellet. The pellet was resuspended in homogenization and stored at −80° C.
On the day of the assay, the pellet was thawed on ice and diluted in assay buffer (50 mM Tris-HCl, 5 mM MgCl2, 2.5 mM EDTA, 0.5 mg/mL fatty acid free bovine serum albumin, pH 7.5). The diluted membrane pellet was added with buffer, either a test compound or vehicle standard and the radioligand [H]^3+-CP-55,940 (0.2 nM) to the wells of a 96-well polypropylene plate. Non-specific binding was measured in wells containing WIN 55,212 (10 uM). The plate was covered and incubated for 90 minutes at 30° C. The contents were then aspirated onto a Packard Unifilter GF/C filter bottom plate prewet with 0.5% polyethyleneimine. The wells of the polypropylene plate were rinsed and aspirated seven times with a 0.9% saline-0.5% Tween 20 solution. The Unifilter plate was dried, scintillation cocktail was added to each well and the counts representing binding were quantitated in a TopCount scintillation counter.
For compounds tested, an IC50 binding value was obtained from percent inhibition studies in which various test concentrations were used. The binding value was calculated by linear regression.
For compounds without an IC50 binding value, the percent inhibition (%) was obtained at a test concentration of ^(1)10 μM, ^(2)1 μM, ^(3)0.2 μM, ^(4)0.003 μM, ^(5) represents an average value.

[2] = target: T1, CB2 receptor; test: Functional cell-based CRE β-gal assay, CB2 (adenylate cyclase activity)
Source text: The CB1 and CB2 receptors are G-protein coupled receptors (GPCR), which influence cell function via the Gi-protein. These receptors modulate the activity of intracellular adenylate cyclase, which in turn produces the intracellular signal messenger cyclic-AMP (cAMP).
At baseline, or during non-ligand bound conditions, these receptors are constitutively active and tonically suppress adenylate cyclase activity. The binding of an agonist causes further receptor activation and produces additional suppression of adenylate cyclase activity. The binding of an inverse agonist inhibits the constitutive activity of the receptors and results in an increase in adenylate cyclase activity.
By monitoring intracellular adenylate cyclase activity, the ability of compounds to act as agonists or inverse agonists can be determined.
Test compounds were evaluated in SK-N-MC cells which, using standard transfection procedures, were stably transfected with human cDNA for pcDNA3-CRE β-gal and pcDNA3 CB1 receptor (human) or pcDNA3 CB2 receptor (human). By expressing CRE β-gal, the cells produced β-galactosidase in response to CRE promoter activation by cAMP. Cells expressing CRE β-gal and either the human CB1 or CB2 receptor will produce less β-galactosidase when treated with a CB1/CB2 agonist and will produce more β-galactosidase when treated with a CB1/CB2 inverse agonist.
The cells were grown in 96-well plates under standard cell culture conditions at 37° C. in a 5% CO2 atmosphere. After 3 days, the media was removed and a test compound in media (wherein the media was supplemented with 2 mM L-glutamine, […] sodium pyruvate, 0.1% low fatty acid FBS (fetal bovine serum) and antibiotics) was added to the cell. The plates were incubated for 30 minutes at 37° C. and the plate cells were then treated with forskolin over a 4-6 hour period, then washed and lysed. The β-galactosidase activity was quantitated using commercially available kit reagents (Promega Corp. Madison, Wis.) and a Vmax Plate Reader (Molecular Devices, Inc).
For cells expressing CRE β-gal and the CB2 receptor, CB2 agonists reduced β-galactosidase activity in a dose-dependent manner and CB2 inverse agonists increase β-galactosidase activity in a dose-dependent manner.
The change in β-galactosidase activity was determined by setting a vehicle treated cell's activity value at 100% and expressing the β-galactosidase activity measured in a corresponding compound treated cell as a percent of the vehicle treated cell activity.
The EC50 value for functional activity for compounds tested was calculated by linear regression and was obtained from studies in which varying compound concentrations were used.
The value of 29% for Compound 5 represents change in functional activity and was obtained from a study in which one compound concentration was used.

O=C(NCC12CC3CC(CC(C3)C1)C2)c1nn(C2CCCCC2)c2c1CCCCCC2 [Cpd 2, 1-cyclohexyl-4,5,6,7,8,9-hexahydro-1H-cyclooctapyrazole-3-carboxylic acid (adamantan-1-ylmethyl)-amide]
IC50 ([1]; Cannabinoid CB2 Receptor Binding IC50, radioligand CP-55,940 0.2 nM, SK-N-MC membranes): 1 nM and 6 nM and 10 nM | inhibition at 0.003 µM ([1]; read-out: CB2 receptor binding percent inhibition): 86% | EC50 [2]: 6.6 nM
